Experimental data published in PubChem BioAssay AID2060882 (Molecular Pharmacology Branch, DTP, NCI, 2025).

System: 898857-211-R-J1-PDC complex spheroids, growth % test/control
Assay: Anticancer human tumor 898857-211-R-J1-PDC patient-derived melanoma cell line growth inhibition [RAS]
Conditions: for IC50: curve of first compound; for viability, T/C: stronger effect = lower value
Summary of the method: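 Multi-cell-type spheroids: tumor cells plus HUVEC endothelial cells and mesenchymal stem cells. RAS-pathway inhibitors were combined with targeted agents, each dosed in half-log steps down from clinical Cmax, or from 10 microM when Cmax was unknown.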
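Further: spheroids exposed to compound for seven days before readout.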
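Wherever viability, T/C is given: 100% = DMSO vehicle control wells.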

## CCN1CCN(Cc2ccc(Nc3ncc(F)c(-c4cc(F)c5nc(C)n(C(C)C)c5c4)n3)nc2)CC1 + C#Cc1c(F)ccc2cc(O)cc(-c3ncc4c(N5CC6CCC(C5)N6)nc(OCC56CCCN5CC(F)C6)nc4c3F)c12
Second compound 0.0316 µM
  IC50: 269 nM
Second compound 0.1 µM
  IC50: 256 nM
Second compound 0.316 µM
  IC50: 235 nM
Second compound 1 µM
  IC50: 298 nM
Second compound 3.16 µM
  IC50: 196 nM
Second compound 10 µM
  IC50: 6.16 nM
Second compound 0.0316 µM, first compound 0.00316 µM
  viability, T/C: 98.6%
Second compound 0.0316 µM, first compound 0.01 µM
  viability, T/C: 87.4%
Second compound 0.0316 µM, first compound 0.0316 µM
  viability, T/C: 91.9%
Second compound 0.0316 µM, first compound 0.1 µM
  viability, T/C: 74.3%
Second compound 0.0316 µM, first compound 0.316 µM
  viability, T/C: 46%
Second compound 0.0316 µM, first compound 1 µM
  viability, T/C: 37.5%
Second compound 0.1 µM, first compound 0.00316 µM
  viability, T/C: 101%
Second compound 0.1 µM, first compound 0.01 µM
  viability, T/C: 92.6%
Second compound 0.1 µM, first compound 0.0316 µM
  viability, T/C: 96.6%
Second compound 0.1 µM, first compound 0.1 µM
  viability, T/C: 75.2%
Second compound 0.1 µM, first compound 0.316 µM
  viability, T/C: 44.4%
Second compound 0.1 µM, first compound 1 µM
  viability, T/C: 42.1%
Second compound 0.316 µM, first compound 0.00316 µM
  viability, T/C: 112%
Second compound 0.316 µM, first compound 0.01 µM
  viability, T/C: 99.5%
Second compound 0.316 µM, first compound 0.0316 µM
  viability, T/C: 96%
Second compound 0.316 µM, first compound 0.1 µM
  viability, T/C: 65.4%
Second compound 0.316 µM, first compound 0.316 µM
  viability, T/C: 44.9%
Second compound 0.316 µM, first compound 1 µM
  viability, T/C: 32.2%
Second compound 1 µM, first compound 0.00316 µM
  viability, T/C: 93%
Second compound 1 µM, first compound 0.01 µM
  viability, T/C: 101%
Second compound 1 µM, first compound 0.0316 µM
  viability, T/C: 96.5%
Second compound 1 µM, first compound 0.1 µM
  viability, T/C: 72.1%
Second compound 1 µM, first compound 0.316 µM
  viability, T/C: 51.2%
Second compound 1 µM, first compound 1 µM
  viability, T/C: 38.2%
Second compound 3.16 µM, first compound 0.00316 µM
  viability, T/C: 107%
Second compound 3.16 µM, first compound 0.01 µM
  viability, T/C: 92.3%
Second compound 3.16 µM, first compound 0.0316 µM
  viability, T/C: 91.2%
Second compound 3.16 µM, first compound 0.1 µM
  viability, T/C: 56.5%
Second compound 3.16 µM, first compound 0.316 µM
  viability, T/C: 45.9%
Second compound 3.16 µM, first compound 1 µM
  viability, T/C: 33.6%
Second compound 10 µM, first compound 0.00316 µM
  viability, T/C: 56.4%
Second compound 10 µM, first compound 0.01 µM
  viability, T/C: 45.8%
Second compound 10 µM, first compound 0.0316 µM
  viability, T/C: 32.5%
Second compound 10 µM, first compound 0.1 µM
  viability, T/C: 21.5%
Second compound 10 µM, first compound 0.316 µM
  viability, T/C: 11.3%
Second compound 10 µM, first compound 1 µM
  viability, T/C: 2.36%

## CC(C)NCC(C(=O)N1CCN(c2ncnc3c2C(C)CC3O)CC1)c1ccc(Cl)cc1 (centres undefined) + CCn1c(-c2cc(N3CCN(C)CC3)cnc2C(C)OC)c2c3cc(ccc31)-c1csc(n1)CC(NC(=O)C1CC1C)C(=O)N1CCCC(N1)C(=O)OCC(C)(C)C2
Second compound 0.000949 µM
  IC50: > 10000 nM
Second compound 0.003 µM
  IC50: 7540 nM
Second compound 0.00949 µM
  IC50: 7680 nM
Second compound 0.03 µM
  IC50: 6370 nM
Second compound 0.0949 µM
  IC50: 8160 nM
Second compound 0.3 µM
  IC50: 6160 nM
Second compound 0.000949 µM, first compound 0.0316 µM
  viability, T/C: 105%
Second compound 0.000949 µM, first compound 0.1 µM
  viability, T/C: 105%
Second compound 0.000949 µM, first compound 0.316 µM
  viability, T/C: 103%
Second compound 0.000949 µM, first compound 1 µM
  viability, T/C: 76.7%
Second compound 0.000949 µM, first compound 3.16 µM
  viability, T/C: 58.6%
Second compound 0.000949 µM, first compound 10 µM
  viability, T/C: 50.5%
Second compound 0.003 µM, first compound 0.0316 µM
  viability, T/C: 102%
Second compound 0.003 µM, first compound 0.1 µM
  viability, T/C: 106%
Second compound 0.003 µM, first compound 0.316 µM
  viability, T/C: 93.5%
Second compound 0.003 µM, first compound 1 µM
  viability, T/C: 82.1%
Second compound 0.003 µM, first compound 3.16 µM
  viability, T/C: 63.3%
Second compound 0.003 µM, first compound 10 µM
  viability, T/C: 45.6%
Second compound 0.00949 µM, first compound 0.0316 µM
  viability, T/C: 85.4%
Second compound 0.00949 µM, first compound 0.1 µM
  viability, T/C: 101%
Second compound 0.00949 µM, first compound 0.316 µM
  viability, T/C: 82%
Second compound 0.00949 µM, first compound 1 µM
  viability, T/C: 82%
Second compound 0.00949 µM, first compound 3.16 µM
  viability, T/C: 61.4%
Second compound 0.00949 µM, first compound 10 µM
  viability, T/C: 46.6%
Second compound 0.03 µM, first compound 0.0316 µM
  viability, T/C: 94%
Second compound 0.03 µM, first compound 0.1 µM
  viability, T/C: 109%
Second compound 0.03 µM, first compound 0.316 µM
  viability, T/C: 96%
Second compound 0.03 µM, first compound 1 µM
  viability, T/C: 75.7%
Second compound 0.03 µM, first compound 3.16 µM
  viability, T/C: 61.2%
Second compound 0.03 µM, first compound 10 µM
  viability, T/C: 43.5%
Second compound 0.0949 µM, first compound 0.0316 µM
  viability, T/C: 99.4%
Second compound 0.0949 µM, first compound 0.1 µM
  viability, T/C: 107%
Second compound 0.0949 µM, first compound 0.316 µM
  viability, T/C: 104%
Second compound 0.0949 µM, first compound 1 µM
  viability, T/C: 79.6%
Second compound 0.0949 µM, first compound 3.16 µM
  viability, T/C: 69.1%
Second compound 0.0949 µM, first compound 10 µM
  viability, T/C: 45.6%
Second compound 0.3 µM, first compound 0.0316 µM
  viability, T/C: 99.9%
Second compound 0.3 µM, first compound 0.1 µM
  viability, T/C: 97.2%
Second compound 0.3 µM, first compound 0.316 µM
  viability, T/C: 86.2%
Second compound 0.3 µM, first compound 1 µM
  viability, T/C: 91.8%
Second compound 0.3 µM, first compound 3.16 µM
  viability, T/C: 63.9%
Second compound 0.3 µM, first compound 10 µM
  viability, T/C: 39.8%
